What was measured:
[1] = molecular target: T1, Mitogen-activated protein kinase kinase kinase 5 (Homo sapiens, UniProt Q99683); experiment: Inhibition of human recombinant ASK1 by HTRF assay
T1 sequence (Q99683 whole entry): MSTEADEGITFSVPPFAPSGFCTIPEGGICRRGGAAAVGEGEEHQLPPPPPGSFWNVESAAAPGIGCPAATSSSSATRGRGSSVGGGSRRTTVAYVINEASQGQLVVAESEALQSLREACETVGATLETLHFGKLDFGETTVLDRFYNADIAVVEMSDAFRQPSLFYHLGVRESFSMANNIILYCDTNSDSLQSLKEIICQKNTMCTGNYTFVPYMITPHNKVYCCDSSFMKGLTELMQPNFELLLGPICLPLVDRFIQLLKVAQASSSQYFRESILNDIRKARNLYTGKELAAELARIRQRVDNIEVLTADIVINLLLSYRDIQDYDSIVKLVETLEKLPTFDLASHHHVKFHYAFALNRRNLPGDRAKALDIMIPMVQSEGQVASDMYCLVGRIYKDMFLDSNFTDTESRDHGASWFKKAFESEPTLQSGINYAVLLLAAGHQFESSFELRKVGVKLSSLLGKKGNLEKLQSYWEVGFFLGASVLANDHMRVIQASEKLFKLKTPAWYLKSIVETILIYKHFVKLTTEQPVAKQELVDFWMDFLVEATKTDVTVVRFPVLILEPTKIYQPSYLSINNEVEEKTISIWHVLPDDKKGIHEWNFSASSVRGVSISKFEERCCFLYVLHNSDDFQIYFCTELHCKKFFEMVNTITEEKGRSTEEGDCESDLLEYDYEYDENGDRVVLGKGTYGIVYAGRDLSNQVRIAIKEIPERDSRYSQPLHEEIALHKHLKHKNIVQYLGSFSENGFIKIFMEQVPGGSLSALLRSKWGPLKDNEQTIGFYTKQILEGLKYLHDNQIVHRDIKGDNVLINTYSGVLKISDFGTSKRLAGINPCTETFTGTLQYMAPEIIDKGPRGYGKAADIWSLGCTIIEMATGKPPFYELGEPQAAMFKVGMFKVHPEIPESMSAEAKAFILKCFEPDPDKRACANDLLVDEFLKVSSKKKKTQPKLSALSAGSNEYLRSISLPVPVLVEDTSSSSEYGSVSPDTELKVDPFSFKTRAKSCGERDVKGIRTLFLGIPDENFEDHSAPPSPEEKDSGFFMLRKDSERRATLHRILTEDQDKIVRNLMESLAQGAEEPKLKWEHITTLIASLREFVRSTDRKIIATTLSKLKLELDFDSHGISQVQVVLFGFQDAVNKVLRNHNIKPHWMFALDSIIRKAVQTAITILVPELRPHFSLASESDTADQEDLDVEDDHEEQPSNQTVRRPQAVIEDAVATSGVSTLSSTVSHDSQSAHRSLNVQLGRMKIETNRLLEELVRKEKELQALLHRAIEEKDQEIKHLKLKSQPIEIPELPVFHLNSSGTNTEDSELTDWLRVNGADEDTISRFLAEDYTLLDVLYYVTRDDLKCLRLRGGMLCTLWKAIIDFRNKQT

[2] = molecular target: T1, Mitogen-activated protein kinase kinase kinase 5; experiment: Inhibition of human ASK1 using STK-substrate biotin as substrate by TR-FRET assay
[3] = molecular target: T1, Mitogen-activated protein kinase kinase kinase 5; experiment: Inhibition of ASK1 (unknown origin) incubated for 2 hrs
[4] = molecular target: T1, Mitogen-activated protein kinase kinase kinase 5; experiment: Inhibition of ASK1 phosphorylation in HEK293T cells incubated for 1 hr; format: cell-based
[5] = Unbound brain-to-plasma concentration ratio in rat at 1 mg/kg, iv by LC-MS/MS analysis; format: ADME, organism-based; settings: brain and plasma, read-out: K(p,uu,brain)
[6] = molecular target: T1, Mitogen-activated protein kinase kinase kinase 5; experiment: Inhibition of ASK1 in HEK293 cells; format: cell-based
[7] = Apparent permeability of compound across apical to basolateral side in human Caco2 cells; format: ADME, cell-based; settings: Caco-2
[8] = Half life in Sprague-Dawley rat at 1 mg/kg, iv by LC-MS/MS analysis; format: ADME, organism-based; settings: in vivo
[9] = Oral bioavailability in Sprague-Dawley rat at 1 mg/kg by LC-MS/MS analysis; format: ADME, organism-based; settings: in vivo
[10] = molecular target: T1, Mitogen-activated protein kinase kinase kinase 5; experiment: Inhibition of ASK1 (unknown origin) incubated for 0.5 to 5 hrs by TR-FRET assay
[11] = molecular target: T1, Mitogen-activated protein kinase kinase kinase 5; experiment: Inhibition of human ASK1
[12] = Toxicity in C57BL/6J mouse harboring SOD1 mutant assessed as animal survival (reference value: 1.06%); settings: in vivo, read-out: Activity
[13] = molecular target: T1, Mitogen-activated protein kinase kinase kinase 5; experiment: Inhibition of ASK1 (unknown origin)
[14] = molecular target: T1, Mitogen-activated protein kinase kinase kinase 5; experiment: Inhibition of N-terminal his-tagged human ASK1 (649 to 946 residues) expressed in Escherichia coli using [gamma-32p]ATP as substrate by liquid scintillation counting analysis
[15] = Cmax in rat 5 mg/kg, po measured upto 24 hrs by LC-MS/MS analysis; format: ADME, organism-based; settings: in vivo
[16] = AUC (0 to t) in rat 5 mg/kg, po measured upto 24 hrs by LC-MS/MS analysis; format: ADME, organism-based; settings: in vivo
[17] = Half life in rat 5 mg/kg, po measured upto 24 hrs by LC-MS/MS analysis; format: ADME, organism-based; settings: in vivo
[18] = molecular target: T1, Mitogen-activated protein kinase kinase kinase 5; experiment: Inhibition of ASK1 (unknown origin) preincubated with compound for 30 mins followed by ATP addition and measured after 120 mins by HTRF analysis
[19] = molecular target: T1, Mitogen-activated protein kinase kinase kinase 5; experiment: Inhibition of full length GST-tagged recombinant human ASK1 using MBP as substrate incubated for 20 mins by cell based assay
[20] = molecular target: 3-phosphoinositide-dependent protein kinase 1 (Homo sapiens) (UniProt O15530); experiment: Inhibition of PDK1 (unknown origin) at 10 uM relative to control
Sequence of 3-phosphoinositide-dependent protein kinase 1 (Homo sapiens) (O15530 whole entry, looked up): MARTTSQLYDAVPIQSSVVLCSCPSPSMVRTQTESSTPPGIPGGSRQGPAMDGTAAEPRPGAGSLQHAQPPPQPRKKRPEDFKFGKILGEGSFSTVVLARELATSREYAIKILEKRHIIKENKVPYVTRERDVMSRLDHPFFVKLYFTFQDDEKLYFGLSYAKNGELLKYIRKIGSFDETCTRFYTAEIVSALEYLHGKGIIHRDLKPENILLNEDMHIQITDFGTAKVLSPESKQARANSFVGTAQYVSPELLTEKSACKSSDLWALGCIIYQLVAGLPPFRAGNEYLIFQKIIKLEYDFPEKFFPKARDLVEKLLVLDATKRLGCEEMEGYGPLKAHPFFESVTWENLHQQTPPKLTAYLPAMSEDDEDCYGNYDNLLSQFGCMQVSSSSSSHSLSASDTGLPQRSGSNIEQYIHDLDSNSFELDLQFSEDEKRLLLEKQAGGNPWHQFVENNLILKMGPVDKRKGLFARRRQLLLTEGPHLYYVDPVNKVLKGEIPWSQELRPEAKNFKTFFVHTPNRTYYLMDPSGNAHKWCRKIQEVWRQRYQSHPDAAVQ

Cc1ccc(-n2ccn(-c3cccc(-c4nncn4C(C)C)n3)c2=O)c(F)c1
IC50 [1]: 50 nM
EC50 [2]: ≤ 500 nM

Cc1ccc(NC(=O)Nc2cccc(-c3nncn3C(C)C)n2)c(F)c1
EC50 [2]: ≤ 500 nM

C[C@H]1CCCOc2ncccc2C(=O)Nc2cccc(n2)-c2nncn21
IC50 [3]: < 100 nM
IC50 [4]: ≤ 1000 nM
Kp uu [5]: ≥ 0.1

CC(C)n1cnnc1-c1cccc(NC(=S)Nc2ccccn2)n1
IC50 [1]: 50 nM
EC50 [2]: ≤ 500 nM

CC(C)n1cnnc1-c1cccc(NC(=O)c2cccc(-n3cnc(C4CC4)c3)c2)n1
EC50 [6]: 3.4 nM
Papp A→B [7]: 3.1 ×10⁻⁶ cm/s
half-life [8]: 0.59 h
bioavailability [9]: 11%

Cc1cc(F)c(C(=O)Nc2cccc(-c3nnc4[nH]ccn34)n2)cc1-n1cnc(C2CC2)c1
IC50 [10]: 6.7 nM

COc1cc2nccc(Oc3ccc(NC(=O)c4cn(C(C)C)c5c(c4=O)CCC=C5)cc3)c2cc1OC
IC50 [11]: 6 nM
survival [12]: 1.09%

CC(C)n1cnnc1-c1cccc(N2C(=O)c3ccc(-n4cnc(C5CC5)c4)cc3C2(C)C)n1
IC50 [13]: 3.22 nM

Cc1ccc(-c2cnc(-c3cccc(-c4nncn4C(C)C)n3)o2)c(F)c1
IC50 [1]: ≤ 50 nM

CC(C)n1cnnc1-c1cccc(NC(=O)c2cc3c(cc2F)CNCc2c(C4CC4)ncn2-3)n1
IC50 [13]: < 10 nM

Cc1cc(F)c(C(=O)Nc2cccc(-c3nnc4sccn34)n2)cc1-n1cnc(C2CC2)c1
IC50 [10]: 4.1 nM

CC(C)n1cnnc1-c1nc(NC(=O)c2cc3c(cc2F)CNCc2nc(C4CC4)cn2-3)cs1
IC50 [13]: > 50 nM

CC(C)n1cnnc1-c1cccc(N2Cc3cc(-n4cnc(C5CC5)c4)ccc3C2=O)n1
IC50 [13]: 1.78 nM

C=C(C)[C@@H]1CC[C@]2(C(=O)O)CC[C@]3(C)[C@H](C[C@H]4OC(=O)C[C@@H](O)[C@]5(C)[C@@H]4[C@@]3(C)CC[C@H]5C(=C)C)[C@@H]12
IC50 [14]: 370 nM

C[C@H](CO)n1cnnc1-c1cccc(N2CCN(c3ccc(C(=O)N4CCCCC4)cn3)C2=O)n1
IC50 [1]: ≤ 50 nM
EC50 [2]: ≤ 50 nM

Cc1cc2c(cc1-n1cnc(C3CC3)c1)C(=O)N(c1cccc(-c3nncn3C(C)C)n1)C2C (stereo unspecified)
Cmax [15]: 2270 ng/mL
AUC(0-t) at 24 h [16]: 9430 ng·h/mL
half-life [17]: 2.9 h

CC(C)n1nnnc1-c1cccc(N2C(=O)c3cc(-n4cnc(C5CC5)c4)ccc3C2(C)C)n1
IC50 [13]: 5.09 nM
IC50 [10]: 3.9 nM

CC(C)n1cnnc1-c1cccc(NC(=O)c2cc3c(cc2F)CNCCc2c(C4CC4)ncn2-3)n1
IC50 [13]: < 10 nM

C=C(C)[C@@H]1CC[C@]2(C(=O)O)CC[C@]3(C)[C@H](C[C@@H](O)[C@@H]4[C@@]5(C)C(CC(=O)O)OC(C)(C)C5CC[C@]43C)[C@@H]12 (stereo partly specified)
IC50 [14]: 449 nM

CC(C)n1cnnc1-c1cccc(-n2cnc3ccc(-n4cnc(C5CC5)c4)cc3c2=O)n1
IC50 [18]: 11.1 nM

Cc1cc(F)c(C(=O)Nc2cccc(-c3nnc4ncncn34)n2)cc1-n1cnc(C2CC2)c1
IC50 [10]: 14 nM

C=C(C)[C@@H]1CC[C@]2(C(=O)On3nnc4ccccc43)CC[C@]3(C)[C@H](C[C@@H](O)[C@@H]4[C@@]5(C)C(CC(=O)OCC)OC(C)(C)C5CC[C@]43C)[C@@H]12 (stereo partly specified)
IC50 [14]: 5.08 nM

CC(C)n1cnnc1-c1cccc(-n2ncc3ccc(-n4cnc(C5CC5)c4)cc3c2=O)n1
IC50 [18]: 0.9 nM

Cc1cc(F)c(C(=O)Nc2cccc(-c3nnc4n3CCOC4)n2)cc1-n1cnc(C2CC2)c1
IC50 [10]: 6.1 nM

CC(C)n1cnnc1-c1cccc(-c2cn(C)c3ccc(-n4cnc(C5CC5)c4)cc3c2=O)n1
IC50 [18]: 1.37 nM

COc1cc2ccn(-c3cccc(-c4nncn4C(C)C)n3)c(=O)c2cc1-n1cnc(C2CC2)c1
IC50 [13]: 1.65 nM

C=C(C)[C@@H]1CC[C@]2(C(=O)N(CCOCCOn3nnc4ccccc43)C(=O)OC(C)(C)C)CC[C@]3(C)[C@H](C[C@H]4OC(=O)C[C@@H](O)[C@]5(C)[C@@H]4[C@@]3(C)CC[C@H]5C(=C)C)[C@@H]12
IC50 [14]: 2.02 nM

CC(C)n1cnnc1-c1cccc(N2CCc3ccc(-n4cnc(C5CC5)c4)cc3C2=O)n1
IC50 [13]: 1.83 nM

Cc1cc(F)c(C(=O)Nc2cccc(-c3nnc4n3CCCC4)n2)cc1-n1cnc(C2CC2)c1
IC50 [10]: 18 nM
IC50 [19]: ≤ 100 nM

Cc1ccc(-c2cnc(-c3cccc(-c4nncn4C(C)C)n3)s2)c(F)c1
IC50 [1]: 50 nM

COc1cc2nncc(Oc3ccc(NC(=O)c4cn(C(C)C)c5c(c4=O)CCC=C5)cc3)c2cc1OC
IC50 [11]: 6 nM
survival [12]: 1.08%

CC(C)n1cnnc1-c1cccc(NC(=O)c2cc3c(cc2F)CNCc2nc(C4CC4)cn2-3)n1
IC50 [13]: < 10 nM

Cc1cc(F)c(C(=O)Nc2cccc(-c3nnc4n3CCCC4)n2)cc1-n1cc(C2CC2)nn1
IC50 [19]: > 100 nM

Cc1cc(F)c(C(=O)Nc2cccc(-c3nnc4ccccn34)n2)cc1-n1cnc(C2CC2)c1
IC50 [10]: 7.8 nM

CC(C)n1cnnc1-c1cccc(-c2coc3ccc(-n4cnc(C5CC5)c4)cc3c2=O)n1
IC50 [18]: 1.14 nM

Cc1ccc(N(C)C(=O)Nc2cccc(-c3nncn3C(C)C)n2)c(F)c1
EC50 [2]: ≤ 5000 nM

CC(C)n1cnnc1-c1cccc(NC(=O)c2cc(-n3cnc(C4CC4)c3)ccn2)c1
inhibition [20]: 0.04%

Cc1cc(F)c(C(=O)Nc2cccc(-c3nnc4n3CCNC4)n2)cc1-n1cnc(C2CC2)c1
IC50 [10]: 47.8 nM

CC(C)n1cnnc1-c1cccc(-n2ccc3ccc(-n4cnc(C5CC5)c4)cc3c2=O)n1
IC50 [13]: 2.71 nM

Cc1cc(F)c(C(=O)Nc2cccc(-c3nnc4n3CCS(=O)(=O)C4)n2)cc1-n1cnc(C2CC2)c1
IC50 [10]: 10 nM

Cc1cc2c(cc1-n1cnc(C3CC3)c1)C(=O)N(c1cccc(-c3nncn3C(C)C)n1)C2
Cmax [15]: 8190 ng/mL
AUC(0-t) at 24 h [16]: 19200 ng·h/mL
half-life [17]: 1.3 h
IC50 [10]: 3.9 nM

CC(C)n1cnnc1-c1nc(NC(=O)c2cc3c(cc2F)CCCc2nc(C4CC4)cn2-3)cs1
IC50 [13]: > 50 nM

Cc1cc(F)c(C(=O)Nc2cccc(-c3nnc4n3CCCC4)n2)cc1-n1cnc(C2CC2)n1
IC50 [19]: ≤ 100 nM

CC(C)n1cnnc1-c1nc(NC(=O)c2cc3c(cc2F)C(=O)NCc2nc(C4CC4)cn2-3)cs1
IC50 [13]: > 50 nM

CC(C)n1cnnc1-c1cccc(N2Cc3ccc(-n4cnc(C5CC5)c4)cc3C2=O)n1
IC50 [13]: 0.93 nM

C=C(C)[C@@H]1CC[C@]2(C(=O)O)CC[C@]3(C)[C@H](C[C@@H](O)[C@@H]4[C@@](C)([C@H](O)CC(=O)O)[C@H](C(=C)C)CC[C@]43C)[C@@H]12
IC50 [14]: 407 nM

CC(C)n1cnnc1-c1cccc(N2CC(C)(C)c3ccc(-n4cnc(C5CC5)c4)cc3C2=O)n1
IC50 [13]: 5.91 nM

CC(C)n1cnnc1-c1cccc(NC(=O)c2cc3c(cc2F)CCCc2nc(C4CC4)cn2-3)n1
IC50 [13]: < 10 nM

CC(C)n1cnnc1-c1cccc(N2CCOc3ccc(-n4cnc(C5CC5)c4)cc3C2=O)n1
IC50 [18]: 4.26 nM

Cc1cc2c(cc1-n1cnc(C3CC3)c1)C(=O)N(c1cccc(-c3nncn3C(C)C)n1)CC2
IC50 [13]: 2.2 nM

CC(C)n1cnnc1-c1cccc(NC(=O)c2cc3c(cc2F)COCc2nc(C4CC4)cn2-3)n1
IC50 [13]: < 10 nM

CC(C)n1cnnc1-c1cccc(C(=O)Nc2cc(-n3cnc(C4CC4)c3)ccn2)n1
IC50 [1]: 0.7 nM

Cn1nc(C(F)(F)F)c2cc(C(=O)Nc3cccc(-c4nncn4C4CC4)n3)c(=O)[nH]c21
IC50 [13]: 2660 nM
inhibition [20]: 42.9%

— ChEMBL document CHEMBL5512601, “Small-molecule inhibitors targeting apoptosis signal-regulated kinase 1” (Eur J Med Chem, 2023)
